No end group written: not given here.

The target in one experiment is DRB1*0301 (DR3) (Homo sapiens, UniProt P01903+P01911, A100K/A102G/A103R/A169T/F55Y/I96L/K41T/L162R/M171V/P40S/Q125H/Q178H/Q39Y/R42S/S66N/T106N/T262R/W38E/Y61H). Format: binding.
In a further experiment the target is B*3501 (Homo sapiens, UniProt P01889, A329T/A93T/A95T/C349S/D201E/D98Y/E176V/E187L/E204Q/E69T/I218V/K202T/L119I/Q94N/R155S/R180L/S121R/S35A/S48A/T118I/V127L/V306I/V36M/Y140S/Y91F). Briefly: biochemical.
In the next experiment the target is B*5401 (Homo sapiens, UniProt P01889, A329T/C349S/D138N/D201E/E176V/E187T/E204Q/E69G/I76V/K202T/L119W/R155S/R180L/S121T/S35A/S48A/V127L/V306I/V36M/Y140L). Description: biochemical.
A further experiment deals with B*5301 (Homo sapiens, UniProt P01889, A329T/A93T/A95T/C349S/D201E/D98Y/E176V/E187L/E204Q/E69T/G107R/I218V/K202T/L105A/L119I/N104I/Q94N/R106L/R155S/R180L/S101N/S121R/S35A/S48A/T118I/V127L/V306I/V36M/Y140S/Y91F). Description: biochemical.
Another experiment concerns the target HLA-B*0702 (Homo sapiens, UniProt P01889). Description: biochemical.

DRB1*0301 (DR3), sequence (P01903 26-254 limits assumed, other chains not shown): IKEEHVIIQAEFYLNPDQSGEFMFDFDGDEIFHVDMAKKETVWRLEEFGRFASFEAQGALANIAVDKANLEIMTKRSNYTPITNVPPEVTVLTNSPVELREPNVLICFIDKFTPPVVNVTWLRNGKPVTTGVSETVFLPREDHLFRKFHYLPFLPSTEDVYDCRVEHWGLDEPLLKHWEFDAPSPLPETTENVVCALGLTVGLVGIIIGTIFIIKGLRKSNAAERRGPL

A word on the IC50: it is the midpoint of a concentration-inhibition curve. High values mean weaker potency in that assay, low ones greater potency in that assay. The molecule `CC(C)C[C@H](NC(=O)[C@H](CC(N)=O)NC(=O)CNC(=O)[C@@H](N)CCC(=O)O)C(=O)N[C@@H](CCCNC(=N)N)C(=O)N[C@H](C(=O)N[C@@H](CCC(=O)O)C(=O)N[C@@H](Cc1ccc(O)cc1)C(=O)N[C@@H](CC(C)C)C(=O)N[C@@H](CC(=O)O)C(=O)N[C@@H](CC(=O)O)C(=O)N[C@@H](CCCNC(=N)N)C(=O)N[C@@H](CC(N)=O)C(=O)N[C@H](C(=O)N[C@@H](Cc1ccccc1)C(=O)O)[C@@H](C)O)C(C)C` had an IC50 at DRB1*0301 (DR3) of more than 10000 nM.
In turn, `CC[C@H](C)[C@H](NC(=O)[C@@H](NC(=O)[C@@H](N)CC(C)C)[C@@H](C)O)C(=O)N[C@H](C(=O)N[C@H](C(=O)N[C@@H](CC(C)C)C(=O)N[C@@H](CCC(=O)O)C(=O)N[C@@H](CC(=O)O)C(=O)N[C@@H](CO)C(=O)N[C@@H](CO)C(=O)NCC(=O)N[C@@H](CC(N)=O)C(=O)N[C@@H](CC(C)C)C(=O)N[C@@H](CC(C)C)C(=O)NCC(=O)O)[C@@H](C)O)[C@@H](C)CC` had an IC50 against DRB1*0301 (DR3) of more than 10000 nM.
Still for that read-out and setting: with `CC[C@H](C)[C@H](NC(=O)[C@H](C)NC(=O)[C@@H](N)CCSC)C(=O)N[C@@H](Cc1ccc(O)cc1)C(=O)N[C@@H](CCCCN)C(=O)N[C@@H](CCC(N)=O)C(=O)N[C@@H](CO)C(=O)N[C@@H](CCC(N)=O)C(=O)N[C@@H](Cc1c[nH]cn1)C(=O)N[C@@H](CCSC)C(=O)N[C@H](C(=O)N[C@@H](CCC(=O)O)C(=O)N[C@H](C(=O)N[C@H](C(=O)N[C@@H](CCCNC(=N)N)C(=O)O)C(C)C)C(C)C)[C@@H](C)O` the figure was more than 10000 nM; with `CC[C@H](C)[C@H](NC(=O)[C@@H](NC(=O)[C@@H](NC(=O)[C@H](CS)NC(=O)[C@H](CC(=O)O)NC(=O)[C@H](CO)NC(=O)CNC(=O)[C@@H](NC(=O)[C@H](CCC(=O)O)NC(=O)[C@@H]1CCCN1C(=O)[C@@H]1CCCN1)C(C)C)[C@@H](C)O)[C@@H](C)O)C(=O)N[C@@H](Cc1c[nH]cn1)C(=O)N[C@@H](Cc1ccc(O)cc1)C(=O)N[C@@H](CC(N)=O)C(=O)N[C@@H](Cc1ccc(O)cc1)C(=O)O`, 7900 nM.
In turn, `CC(C)C[C@H](NC(=O)[C@H](CCC(N)=O)NC(=O)[C@@H](NC(=O)[C@@H]1CCCN1)C(C)C)C(=O)N[C@@H](Cc1c[nH]c2ccccc12)C(=O)N[C@H](C(=O)N[C@@H](CC(=O)O)C(=O)N[C@@H](CO)C(=O)N[C@H](C(=O)N1CCC[C@H]1C(=O)N1CCC[C@H]1C(=O)N1CCC[C@H]1C(=O)NCC(=O)N[C@H](C(=O)N[C@@H](CCCNC(=N)N)C(=O)O)[C@@H](C)O)[C@@H](C)O)C(C)C` gave an IC50 at DRB1*0301 (DR3) of more than 10000 nM.
With `CC[C@H](C)[C@H](NC(=O)[C@H](C)NC(=O)[C@H](CCC(N)=O)NC(=O)[C@H](CO)NC(=O)[C@@H]1CCCN1C(=O)[C@H](CC(C)C)NC(=O)[C@@H]1CCCN1C(=O)[C@@H](N)Cc1ccccc1)C(=O)O` [p53.33.F1], the IC50 against B*3501 came to 720 nM; on B*5401, 83 nM.
For the molecule `CC[C@H](C)[C@H](NC(=O)[C@@H]1CCCN1C(=O)[C@@H]1CCCN1C(=O)[C@H](C)NC(=O)[C@H](C)NC(=O)[C@H](CCC(=O)O)NC(=O)[C@@H]1CCCN1C(=O)[C@H](CCSC)NC(=O)[C@H](CCCNC(=N)N)NC(=O)[C@@H]1CCCN1C(=O)[C@@H](N)Cc1ccccc1)C(=O)O` [p53.63.F1111], the figures for the IC50 on B*3501, on B*5301 and against B*5401 were 5540 nM, 5470 nM and 2.9 nM, respectively.
As to `CC[C@H](C)[C@H](NC(=O)[C@H](C)NC(=O)[C@@H]1CCCN1C(=O)[C@H](C)NC(=O)[C@@H]1CCCN1C(=O)[C@H](C)NC(=O)[C@@H](NC(=O)[C@@H]1CCCN1C(=O)[C@@H]1CCCN1C(=O)[C@@H](N)Cc1ccccc1)C(C)C)C(=O)O` [p53.70.F1110], the values for the IC50 against HLA-B*0702, against B*5301 and against B*5401 were 290 nM, 2910 nM and 63 nM, respectively.
With `CC[C@H](C)[C@H](NC(=O)[C@@H]1CCCN1C(=O)[C@@H](NC(=O)[C@@H]1CCCN1C(=O)[C@H](C)NC(=O)[C@H](C)NC(=O)[C@@H]1CCCN1C(=O)[C@H](C)NC(=O)[C@@H]1CCCN1C(=O)[C@@H](N)Cc1ccccc1)[C@@H](C)O)C(=O)O` [p53.74.F1110], the IC50 on B*3501 is 277 nM; on HLA-B*0702 it was 1.5 nM; against B*5301, 127 nM; against B*5401 it was 5.3 nM.
As to `CC[C@H](C)[C@H](NC(=O)[C@@H]1CCCN1C(=O)[C@@H](NC(=O)[C@@H]1CCCN1C(=O)[C@H](C)NC(=O)[C@H](C)NC(=O)[C@@H]1CCCN1C(=O)[C@@H](N)Cc1ccccc1)[C@@H](C)O)C(=O)O` [p53.76.F118], the IC50 against B*3501 amounted to 655 nM; against HLA-B*0702, 128 nM; against B*5401, 3.1 nM.
With `CC[C@H](C)[C@H](NC(=O)[C@@H]1CCCN1C(=O)[C@H](C)NC(=O)[C@H](C)NC(=O)[C@@H]1CCCN1C(=O)[C@@H](NC(=O)[C@@H]1CCCN1C(=O)[C@H](C)NC(=O)[C@H](C)NC(=O)[C@@H]1CCCN1C(=O)[C@@H](N)Cc1ccccc1)[C@@H](C)O)C(=O)O` [p53.76.F1111], the values for the half-inhibitory concentration (IC50) at B*5301 and at B*5401 were 3210 nM and 15 nM, respectively.
For `CC[C@H](C)[C@H](NC(=O)[C@@H]1CCCN1C(=O)[C@H](C)NC(=O)[C@H](C)NC(=O)[C@@H]1CCCN1C(=O)[C@@H](NC(=O)[C@@H]1CCCN1C(=O)[C@@H](N)Cc1ccccc1)[C@@H](C)O)C(=O)O` [p53.79.F118], the IC50 at B*3501 is 5140 nM; at HLA-B*0702, 90 nM; against B*5301 it was 6200 nM; at B*5401 it was 7.7 nM.
For `CC(C)C[C@H](NC(=O)[C@@H]1CCCN1C(=O)[C@H](Cc1c[nH]c2ccccc12)NC(=O)[C@H](CO)NC(=O)[C@@H]1CCCN1C(=O)[C@H](C)NC(=O)[C@@H]1CCCN1C(=O)[C@H](C)NC(=O)[C@@H]1CCCN1C(=O)[C@@H](N)Cc1ccccc1)C(=O)O` [p53.84.F1], the IC50 was 5.1 nM at B*3501 and 1.7 nM on B*5401.
In the case of `CC[C@H](C)[C@H](NC(=O)[C@H](CO)NC(=O)[C@@H]1CCCN1C(=O)[C@H](C)NC(=O)[C@@H]1CCCN1C(=O)[C@H](C)NC(=O)[C@@H]1CCCN1C(=O)[C@@H](N)Cc1ccccc1)C(=O)O` [p53.84.F118], the IC50 against B*3501 was 327 nM; at B*5301, 131 nM; on B*5401, 6.7 nM.
For the molecule `CC[C@H](C)[C@H](NC(=O)[C@@H]1CCCN1C(=O)[C@H](Cc1c[nH]c2ccccc12)NC(=O)[C@H](CO)NC(=O)[C@@H]1CCCN1C(=O)[C@H](C)NC(=O)[C@@H]1CCCN1C(=O)[C@H](C)NC(=O)[C@@H]1CCCN1C(=O)[C@@H](N)Cc1ccccc1)C(=O)O` [p53.84.F1110], the IC50 was 13 nM on HLA-B*0702, 42 nM at B*5301 and 1.2 nM on B*5401.
For `CC(C)C[C@H](NC(=O)[C@@H]1CCCN1C(=O)[C@H](Cc1c[nH]c2ccccc12)NC(=O)[C@H](CO)NC(=O)[C@@H]1CCCN1C(=O)[C@H](C)NC(=O)[C@@H]1CCCN1C(=O)[C@@H](N)Cc1ccccc1)C(=O)O` [p53.86.F1], the IC50 against B*3501 was 3.1 nM; against HLA-B*0702, 10 nM; at B*5301 it was 4 nM; at B*5401 it was 9.1 nM.
On the same counts, the results for `CC(C)C[C@H](NC(=O)[C@@H]1CCCN1C(=O)[C@H](Cc1c[nH]c2ccccc12)NC(=O)[C@H](CO)NC(=O)[C@@H]1CCCN1C(=O)[C@@H](N)Cc1ccccc1)C(=O)N[C@@H](CO)C(=O)N[C@@H](CO)C(=O)N[C@@H](CO)C(=O)N[C@H](C(=O)O)C(C)C` [p53.88.F1] are 72 nM, 3.2 nM, 93 nM and 0.3 nM.
On the same counts, the results for `CC[C@H](C)[C@H](NC(=O)[C@H](CO)NC(=O)[C@H](CO)NC(=O)[C@H](CO)NC(=O)[C@H](CC(C)C)NC(=O)[C@@H]1CCCN1C(=O)[C@H](Cc1c[nH]c2ccccc12)NC(=O)[C@H](CO)NC(=O)[C@@H]1CCCN1C(=O)[C@@H](N)Cc1ccccc1)C(=O)O` [p53.88.F1110] are 100 nM, 5.5 nM, 8.5 nM and 2.4 nM.
On the same counts, the results for `CC[C@H](C)[C@H](NC(=O)[C@@H](NC(=O)[C@@H](NC(=O)[C@@H](NC(=O)[C@@H](NC(=O)[C@H](CC(C)C)NC(=O)[C@@H](NC(=O)[C@@H]1CCCN1C(=O)[C@@H](N)Cc1ccccc1)[C@@H](C)CC)[C@@H](C)O)[C@@H](C)CC)[C@@H](C)CC)[C@@H](C)O)C(=O)O` [p53.249.F119] are 36 nM, 74 nM, 4 nM and 1.8 nM.
FPAAPTPAI [p53.76.F119]: the IC50 on B*3501 is 12 nM; on HLA-B*0702, 2.6 nM; on B*5301, 7.2 nM; at B*5401, 2.5 nM.
On the same counts, the results for FPAPSWPI [p53.86.F118] are 4.8 nM, 120 nM, 3.3 nM and 1.6 nM.
On the same counts, the results for FPILTIITL [p53.249.F1] are 8 nM, 6.5 nM, 7.2 nM and 5 nM.

Source of the values: US20040048790A1, “Inducing cellular immune responses to p53 using peptide and nucleic acid compositions” (priority 1999, published 2004).
